Measurements published in patent US7015190B1, “Method for enhancing long-term memory in a subject and uses thereof” (The Trustees of Columbia University in the City of New York, priority 1996, dated 2006).
Numbered stars: 1 amine (or outer) side, 2 acyl side, 3 side chain; on linkers, the order of the positions; unused ones are H or OH. Bridge positions count the residues as written; N and C are the ends. Square brackets hold non-standard residues; d marks the D form. Peptide text beside a SMILES is read from it. I, II: the chains in the order shown. Actinocin(9to1) = Cc1c2oc3c(C)ccc(C(=O)[*:1])c3nc-2c(C(=O)[*:2])c(N)c1=O; NMeV = CN[C@H](C(=O)O)C(C)C; Sar = CNCC(=O)O

Columns and labels:
ApCREB-2 mRNA = assay: Steady state level of ApCREB-2 mRNA after exposure to agents; set-up: species or system Aplysia; conditions: following exposure to the agent
Experimental: RNA was isolated from cultures of approximately 200 Aplysia sensory neurons that had been exposed to none, one, or five pulses of 5-HT (10 μM) as indicated. As a control, one half of the RNA was processed omitting reverse transcriptase from the reaction (—RT).
(FIG. 3B) Northern blot analysis of RNA isolated from CNS of Aplysia exposed to 5-HT in vivo. CNSs were dissected from anesthetized animals after exposing them in vivo to 5-HT (50 μM) for the time indicated above each lane. Eight μg of total RNA from each timepoint was separated in a 1% agarose gel, blotted and consecutively hybridized with probes specific for ApCREB-2, ApCREB-1, ApC/EBP, and ribosomal protein S4 transcripts.
Cultures of approximately 200 Aplysia sensory neurons, established by the dissociation of the pleural sensory cluster in a single dish, were exposed to 10 μM 5-HT for 5 min once or five times separated by 20 min. After washing with ASW, cells were lysed by 100 μl of the guanidium thiocyanate solution and the RNA was isolated. For RT-PCR, the isolated RNA was treated with RNAse free DNAse (Boehringer), reextracted as above and processed using RT-PCR kit (Boehringer). The sequence of the primers used were […]

[1] = system: CRE-mediated transcription (5xCRE-VIP-lacZ reporter); assay: 5xCRE-VIP-lacZ reporter, transient cotransfection of F9 cells; type: cell-based, mouse
Experimental: (FIG. 5B) Transient transfections of F9 cells using a 5xCRE-VIP-lacZ reporter plasmid. The indicated expression constructs were cotransfected with 5xCRE-VIP-lacZ reporter as in (A), except that relative (-galactosidase activity was calculated relative to 5xCRE-VIP-lacZ reporter and normalized to the luciferase activity of cotransfected pRSV-luc. ApCREB-2 and ApCREB-1 are activators of 5xCRE-VIP-lacZ reporter, but become mutual repressors when coexpressed.
(§1) Undifferentiated mouse F9 cells were transfected using Lipofectamine (BRL). The β-galactosidase and luciferase activities were quantitated by chemiluminescence (Galacton Plus, Tropix, and a Luciferase assay kit, Promega) in a Turner 20e luminometer.

ATF4 = assay: Amount of ATF4 during neuronal differentiation of PC12 cells; type: cell-based, rat; conditions: PC12 cells exposed during differentiation
From the text: The above may be tested in a cellular model of neuronal differentiation, specifically the rat pheochromocytoma cells PC12. The cell line is widely used as a model for neuronal differentiation and also for apoptosis, which is programmed neuronal cell death. PC12 cells are undifferentiated in culture and can be differentiated in vitro by exposing them to nerve growth factor (NGF) and cAMP analogs. Withdrawal of these compounds from the cell culture conditions leads to programmed cell death.
It has been investigated whether ATF4 plays a role in the neuronal differentiation of PC12 cells. […] In addition, overexpression of ATF4 in PC12 cells by transfecting expression constructs with constitutive CMV promoter and ATF4 cDNA prevents the PC12 cells from undergoing neuronal differentiation. […] It is important to also study the role of ATF4 in apoptosis. Since both differentiation and cell death in PC12 cell culture involve similar signal transduction pathways, it is reasonable that ATF4 may be involved in this process as well.

[2] = system: Aplysia sensory-motor neuron cocultures; assay: Short- and long-term synaptic facilitation (EPSP amplitude in motor neuron L7) in sensory-motor neuron cocultures; type: cell-based
Experimental: Aplysia sensory neurons from the pleural ganglia of adult animals (80–100 g) were cocultured with the motor neuron L7 from juvenile animals (0.5–4 g). After 4–5 days in culture, the strength of the synaptic connections between the sensory and motor cell was measured electrophysiologically, as previously described (Montarolo et al. 1986, Alberini et al., 1994). The motor neuron was impaled with a glass microelectrode filled with 2.5M KCl (10 MΩ (resistance) and its membrane potential was held at 30 mV below its resting value. The EPSP was evoked by extracellular stimulation of the sensory neuron and the data were stored on a 4 channel tape recorder.
Two protocols were used to induce synaptic facilitation in Aplysia cocultures. In the first, after testing the initial EPSP amplitude, 10 μM 5-HT was applied for 5 min (single pulse). […] The amount of facilitation was calculated as the percentage change in EPSP amplitude recorded before and at the different time points after the single 5-HT application. In the other group of experiments, long-term facilitation was evoked by five exposures to 10 μM 5-HT for 5 min each, at 20 min intervals (5 pulses). The facilitation was calculated as the percentage change in EPSP amplitude 24 hr after the five pulses of 5-HT. The antisera, adjusted to the osmolarity of Aplysia neurons (Alberini et al., 1994), were pressure injected into the sensory neurons 1 hr before 5-HT treatment. Where indicated, anisomycin (10 μM) or actinomycin D (50 μg/ml) was added to the cocultures 1 hr before the 5-HT pulse and was present continuously during the 5-HT treatment. All data are presented as mean percentage change ±SEM in the EPSP amplitude measured after treatment, as compared with its initial pretreatment amplitude. A one way analysis of variance and Newman Keuls multiple range test were used to determine the significance of the EPSP changes.

[3] = system: Aplysia sensory-motor neuron cocultures; assay: Number of fluorescent sensory neuron varicosities contacting the motor neuron; type: cell-based; conditions: 24 hr after one pulse of 5-HT; antiserum injected 1 hr before training
Experimental: Individual sensory neuron were cocultivated with a single motor cell. Glass micropipettes were filled with a 6% sterile-filtered solution of the fluorescent dye 5(6)-carboxyfluorescein (chromatographically purified; Molecular Probes) in 0.44 M KOH (pH 7.0, resistance 50-90 M. The dye was injected into the sensory neurons immediately after measuring the initial EPSP amplitude by 0.4–0.6 nA hyperpolarizing current pulses (500 ms duration at 1 Hz) for 4–6 min, phase contrast and fluorescence images of the same view areas were taken both before and 24 hr after treatment as previously described (Glanzman et al., 1990; Bailey et al., 1992).
Varicosities were identified according to criteria previously established for sensory neurons in vivo (Bailey et al., 1979; Bailey and Chen, 1983, 1988), and in vitro (Glanzman et al., 1990; Bailey et al., 1992) and included all slightly elongated spheres of approximately 2–3 μm or more in diameter.

UASg-lacZ gene = assay: GAL4 DNA binding domain activation assay in yeast; type: cell-based, S. cerevisiae; conditions: fused to the GAL4 DNA binding domain, reporter UASg-lacZ
Experimental: The Aplysia CNS cDNA library was synthesized in pGAD10 using random hexamers and the BRL cDNA synthesis kit. Two libraries constructed from size fractionated cDNAs with average inserts >2 kb (5×10^6 independent clones each) were used in the two-hybrid screening as described previously (Fields and Song., 1989, Durfee et al., 1993, Ausubel et al., 1994). The transcriptional activation properties of ApCREB-2 and its interaction with other proteins in the two-hybrid system was analyzed using the full length ApCREB-2 and its deletion mutants subcloned in pAS1 and pACT2 vectors. The transcriptional activity of ApCREB-2/GAL4 DNA binding domain fusions was determined as decribed (Ma and Ptashne, 1987; Durfee et al., 1993). To analyze the protein interactions, ApCREB-2, ApC/EBP, rat CREB, c-fos and deletion mutants of these proteins in pAS1 and pACT2 were cotransformed into S. cerevisiae Y190, and the expressed β-galactosidase quantified as above.

[4] = system: CRE-mediated transcription (pGL3-CRE reporter); assay: pGL3-CRE luciferase reporter, transient cotransfection of F9 cells; type: cell-based, mouse
Experimental: (FIG. 5A) Mouse F9 cells were transiently cotransfected with 1 μg of pGL3-CRE reporter plasmid along with 1 μg of each of the indicated expression plasmids: ApCREB-2=pRcRSV-ApCREB-2, ApCREB-1=pRcRSV-ApCREB-1, PKA=pRcRSV-PKA. All transfections were adjusted to 4 μg total DNA with pRcRSV vector DNA.
as §1

[5] = expression plasmid alone, with PKA
[6] = expression plasmid alone, without PKA
[7] = 2 hr after one pulse of 5-HT paired with ApCREB-2 antiserum injection, inhibitor present during 5-HT
[8] = 24 hr after one pulse of 5-HT paired with ApCREB-2 antiserum injection, inhibitor present during 5-HT

Q: `CC(C)Cn1c(=O)n(C)c(=O)c2[nH]cnc21` [IBMX] was tested. Which “level of ApCREB-2 mRNA” value (ApCREB-2 mRNA) did it give?
A: does not change

Q: What does the source list for “rat CREB-1: wild type rat CREB expressed from pRcRSV-CREB341”?
A: relative activation [1, 5]: 68.82±7.3; relative activation [1, 6]: 7.65±0.65

Q: NGF: nerve growth factor was tested. Which “amount of ATF4” value (ATF4) did it give?
A: dramatically reduced

Q: For `Nc1ncnc2c1ncn2[C@@H]1O[C@@H]2COP(O)(=S)O[C@H]2[C@H]1O` (some centres unmarked) [Sp-cAMPS], which “level of ApCREB-2 mRNA” value (ApCREB-2 mRNA) is on record?
A: does not change

Q: For `C=C1[C@@H](O)[C@@H]2O[C@]3(CC[C@H](/C=C/[C@@H](C)[C@@H]4CC(C)=C[C@@]5(O[C@H](C[C@@](C)(O)C(=O)O)CC[C@H]5O)O4)O3)CC[C@H]2O[C@@H]1[C@@H](O)C[C@H](C)[C@H]1O[C@@]2(CCCCO2)CC[C@H]1C` [okadaic acid], which “level of ApCREB-2 mRNA” value (ApCREB-2 mRNA) is on record?
A: does not change

Q: How did the “level of ApCREB-2 mRNA” value (ApCREB-2 mRNA) turn out when `CNc1ccc2oc(C[C@H]3O[C@@]4(CC[C@H]3C)O[C@H]([C@H](C)C(=O)c3ccc[nH]3)[C@H](C)C[C@H]4C)nc2c1C(=O)O` [A23187] was run?
A: does not change

Q: Which “percent change in EPSP amplitude” value [2, 7] does the source give for `Cc1c2oc3c(C)ccc(C(=O)N[C@@H]4C(=O)N[C@H](C(C)C)C(=O)N5CCC[C@H]5C(=O)N(C)CC(=O)N(C)[C@@H](C(C)C)C(=O)O[C@@H]4C)c3nc-2c(C(=O)N[C@@H]2C(=O)N[C@H](C(C)C)C(=O)N3CCC[C@H]3C(=O)N(C)CC(=O)N(C)[C@@H](C(C)C)C(=O)O[C@@H]2C)c(N)c1=O` [actinomycin D] (I: T[dV]P[Sar][NMeV] / II: T[dV]P[Sar][NMeV]; ester I:1-I:C, II:1-II:C; linker I:N-II:N via Actinocin(9to1)) here?
A: +10.12%

Q: What about the “percent change in EPSP amplitude” value [2, 8] of the same molecule?
A: 7.87%

Q: For `COc1ccc(C[C@H]2NC[C@H](O)[C@H]2OC(C)=O)cc1` [anisomycin], which “percent change in EPSP amplitude” value [2, 7] is on record?
A: +19.17%

Q: And the “percent change in EPSP amplitude” value [2, 8]?
A: +3.67%

Q: And the “level of ApCREB-2 mRNA” value (ApCREB-2 mRNA)?
A: does not change

Q: Which “percent change in EPSP amplitude” value ([2]; 10 min after one pulse of 5-HT) does the source give for `NCCc1c[nH]c2ccc(O)cc12` [5-HT, serotonin] here?
A: 13.6%

Q: And the “percent change in EPSP amplitude” value ([2]; 30 min after one pulse of 5-HT, sera injected 1 hr before)?
A: 2.83%

Q: And the “percent change in EPSP amplitude” value ([2]; 2 hr after one pulse of 5-HT, sera injected 1 hr before)?
A: −1%

Q: And the “facilitation of the synaptic potential” value ([2]; massed training: 25 minutes of continuous exposure to 5-HT)?
A: +39%

Q: What about the “duration of short-term facilitation” value ([2]; single pulse of 5-HT, no injection) of the same molecule?
A: about 10 min

Q: What about the “level of ApCREB-2 mRNA” value (ApCREB-2 mRNA) of the same molecule?
A: not affected

Q: And the “percent change in the number of sensory neuron varicosities” value [3]?
A: −10%

Q: For `Nc1ncnc2c1ncn2[C@@H]1O[C@@H]2CO[P@@](O)(=S)O[C@H]2[C@H]1O` [Rp-cAMPS], which “level of ApCREB-2 mRNA” value (ApCREB-2 mRNA) is on record?
A: does not change

B1: ApCREB-2: Aplysia bZIP transcription factor, 378 amino acids (SEQ ID NO 1), expressed from pRcRSV-ApCREB-2 (protein)
chain: MELDLWSEDFQLAREWGLEMPVVQTDGQFGDLKSTSRHGGDESLSLQPQGATLKLEPFEEDVLGAEWMESSDLGSFLDALGDNHERLHPFESNLLEFTSLITPDDSTVSKDILSSTLQFPTQPVNIPLYASHGAEDFSAETEFENHLSPPDSPEQVAPVINLEPVELTASHMTVISPDGLLGGMELASESLTFTELDFVNFNDSAVGSIGGAEELLGSPLSVDDVESTISFSGPSSPETSQSSIIESSPELYKVISTSSIDASKRFSPYSRSSKSKQSVKTSDAKAPRKTRTPAQPVPEHVIMEHLDKKDRKKLQNKNAAIRYRMKKKGEAQGIKGEEQELEELNTKLKTKVDDLQREIKYMKNLMEDVCKAKGIQLKM
Q: How did the relative activation ([1]; cotransfected with ApCREB-1, absence of PKA) turn out when B1 was run?
A: 1.84±0.25

Q: What about the relative activation ([1]; cotransfected with ApCREB-1, presence of PKA) of the same molecule?
A: 4.12±0.53

Q: And the relative activation ([1]; cotransfected with rat CREB-1, with PKA)?
A: 5.15±0.62

Q: And the relative activation ([1]; cotransfected with rat CREB-1, without PKA)?
A: 2.27±0.3

Q: What about the relative activation [1, 5] of the same molecule?
A: 43.12±5.1

Q: What about the relative activation [1, 6] of the same molecule?
A: 2.46±0.2

Q: What about the “relative activity as compared to wild type GAL4” value (UASg-lacZ gene) of the same molecule?
A: 82%

Q: And the relative activation ([4]; cotransfected with ApCREB-1, absence of PKA catalytic subunit)?
A: 0.96±0.15

Q: And the relative activation ([4]; cotransfected with ApCREB-1, presence of PKA catalytic subunit)?
A: 1.64±0.20
